Measurements published in patent publication US10961187B2, “Substituted N-acetyl-L-cysteine derivatives and related compounds” (Promentis Pharmaceuticals, Inc., priority 2013, dated 2021).

Key:
System xc− = target: T1, System xc− (Homo sapiens, UniProt Q9UPY5); experiment: 14C-cystine uptake in human glial cells from brain astrocytoma (1321N1); type: cell-based; details: 1321N1 cells
T1 construct: in vitro culture system of human glial cells from brain astrocytoma (1321N1); endogenous in cells; host or cells: 1321N1 human astrocytoma cells
T1 sequence (Q9UPY5 1-501): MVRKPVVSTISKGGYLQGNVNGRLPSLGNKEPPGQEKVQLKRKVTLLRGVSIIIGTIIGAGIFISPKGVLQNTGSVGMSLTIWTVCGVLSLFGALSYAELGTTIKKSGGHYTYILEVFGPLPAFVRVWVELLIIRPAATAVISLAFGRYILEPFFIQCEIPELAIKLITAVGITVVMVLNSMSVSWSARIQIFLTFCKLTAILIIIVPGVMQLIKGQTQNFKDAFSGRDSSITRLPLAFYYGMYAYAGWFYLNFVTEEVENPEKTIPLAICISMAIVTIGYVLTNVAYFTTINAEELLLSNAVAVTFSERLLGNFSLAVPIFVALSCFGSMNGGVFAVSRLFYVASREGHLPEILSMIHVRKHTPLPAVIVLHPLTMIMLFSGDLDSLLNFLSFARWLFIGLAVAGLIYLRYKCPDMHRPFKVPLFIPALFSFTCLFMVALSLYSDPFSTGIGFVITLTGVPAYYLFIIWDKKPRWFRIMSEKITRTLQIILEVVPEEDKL
T1 sequence (P08195 1-529 partner): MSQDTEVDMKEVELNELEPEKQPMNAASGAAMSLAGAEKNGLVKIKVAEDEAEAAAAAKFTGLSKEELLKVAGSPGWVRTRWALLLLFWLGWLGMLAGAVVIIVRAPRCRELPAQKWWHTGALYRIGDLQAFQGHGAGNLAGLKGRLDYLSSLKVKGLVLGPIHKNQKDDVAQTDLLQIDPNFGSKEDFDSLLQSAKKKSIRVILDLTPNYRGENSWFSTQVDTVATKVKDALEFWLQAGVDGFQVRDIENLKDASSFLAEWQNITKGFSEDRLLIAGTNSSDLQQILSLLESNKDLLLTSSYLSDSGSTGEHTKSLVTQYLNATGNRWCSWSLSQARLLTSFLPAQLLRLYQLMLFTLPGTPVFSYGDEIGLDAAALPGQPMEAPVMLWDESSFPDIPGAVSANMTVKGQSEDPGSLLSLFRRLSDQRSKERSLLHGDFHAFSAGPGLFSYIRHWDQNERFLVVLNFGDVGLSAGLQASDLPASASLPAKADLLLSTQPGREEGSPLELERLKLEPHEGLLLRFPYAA
Experimental: The goal of these experiments was to determine ^14C-cystine uptake.
The screening of compounds was performed using an in vitro culture system of human glial cells from brain astrocytoma (1321N1). Cells were plated on 24 well plates coated with poly-D-lysine and laminin and grown in a balanced salt solution supplemented with 5% heat inactivated horse serum, 5% fetal bovine serum, 2 mM glutamine and glucose (total 21 mM). Cultures were maintained in humidified 5% CO2 incubators at 37° C. for 3-4 days before experiments were performed, at this time the cultures has formed a single confluent layer. For experiments, cultures were washed 3 times into a Na-free HEPES and HCO3^− buffered balanced salt solution. After 1 hour, the test compounds are added. Following a three hour incubation, ^14C-cystine (0.025 mCi/mL) was then added for 20 minutes. Following the ^14C-cystine exposure, cultures were washed 3 times with ice cold HEPES buffered saline solution and dissolved in 250 μl sodium dodecyl sulfate (0.1%). An aliquot (200 μl) was removed and added to scintillation fluid for counting. Values were normalized to ^14C-cystine uptake in untreated controls on the same experimental plate.

Rats [1] = experiment: Prepulse inhibition experiment (MK-801-induced deficit); type: in vivo; details: MK-801 0.1 mg/kg SC, MK-801 + vehicle control about 16%
Experimental: Rats were placed on a platform in a sound attenuating chamber (10.875″×14″×19.5″; Hamilton Kinder, CA) that rested on a motion sensing plate. During all sessions, the background noise was held constant at 60 dB. A matching session was conducted to determine the magnitude of the average startle response for each rat. This session consisted of a five minute habituation period followed by 20 trials; 17 trials involved the presentation of a single auditory stimulus (pulse stimulus; 50 dB above the background noise) and three trials in which a pre-pulse stimulus (12 db above background) was presented 100 ms before the pulse auditory stimulus. Rats were then assigned into the various treatment groups so that the magnitude of the startle response was equivalent across all groups. Two days later, a testing session was conducted to assess sensorimotor gating. One hour prior to testing, rats received a prodrug (0-100 mg/kg, P.O.) and 55 minutes later acute MK-801 maleate (0.1 mg/kg, SC). The testing session consisted of a five minute habituation period, after which rats received 58 discrete trials; 26 trials during which the pulse stimulus (50 db above background) was presented alone, eight trials each in which the pulse stimulus was preceded by a prepulse stimulus (5, 10, or 15 db above background) and eight background trials with no pulse (No stimulus; background noise only). The first six pulse alone trials were not included in the average startle stimulus to achieve a relatively stable level of startle reactivity. All startle responses were normalized to vehicle control, and the percent of prepulse inhibition was determined as 100-(average prepulse startle response/average startle stimulus alone)*100.

Rats [2] = experiment: Elevated-plus maze; type: in vivo; details: for time spent on the open arms: one hour prior to testing, five minute session
Experimental: Rats were tested in a standard elevated plus maze; testing occurred in a dimly illuminated room using only two lights mounted over the maze. Animals were allowed to habituate to the room for at least one hour prior to treatment. One hour prior to testing, rats received a compound of the present invention (0-30 mg/kg, P.O.). For testing, the rat was placed in the elevated plus maze for five minutes, alternating the starting position between facing an open arm and facing a closed arm. The session was recorded and an observer blind to treatment recorded the number of explorations, entries and time spent in the open arm. Explorations were defined as the rat placing two feet into an open arm without fully entering said arm. Entries were defined as the rat placing all four feet in an open arm. Time of entry in the open arm was recorded from the time the rat placed four feet in the open arm until two of the rats' feet entered the open square.

[3] = Brain levels of glutathione following oral administration; type: in vivo; details: C57BL/6 mice, 100 mg/kg oral, 4 hours; for glutathione in the brain: brain tissue
Experimental: A compound of the invention was administered orally to C57BL/6 mice at either 10 or 100 mg/kg. Brain samples were collected at 0.25, 0.50, 1, 2 and 4 hours following the oral administration. Levels of NAC and glutathione were quantified in the brain samples using liquid chromatography-mass spectrometry (LC-MS/MS).

[4] = 10 mg/kg P.O. one hour prior to testing

Structure (SMILES)	inhibition at 1000 µM (System xc−; 1000 μM, three hour incubation, read-out: decrease (inhibition) in 14C-cystine uptake) [%]	% prepulse inhibition (Rats [1]; [4])	increase of time spent on the open arm (Rats [2]; 10 or 30 mg/kg PO)	time spent on the open arms (Rats [2]; 10 or 30 mg/kg PO)	glutathione in the brain, times that of the vehicle [3]	glutathione in the brain [3]	decrease in 14C-cystine uptake (System xc−; over the concentrations tested, dose-dependent)	% prepulse inhibition (Rats [1]; 3 mg/kg P.O. one hour prior to testing)	increase of time on the open arms over control (Rats [2]; 10 mg/kg PO)	time spent on the open arms (Rats [2]; 10 mg/kg PO)	decrease in 14C-cystine uptake (System xc−; 100 μM (most effective concentration), average of three experiments)
CC(=O)N[C@@H](CSC(=O)c1ccc(C)cc1)C(=O)O [Pro-2023, (2R)-2-Acetylamino-3-(4-methyl-benzoylsulfanyl)-propionic acid]	~45	about 30%	about 100%	around 27 seconds	about 2 times	about 200 nmol/g					
CCOC(=O)[C@H](CSC(=O)C1CSC(=O)N1)NC(C)=O (stereo partly drawn) [Pro-4047, Ethyl (2R)-2-acetamido-3-(2-oxo-1,3-thiazolidine-4-carbonylsulfanyl) propanoate]							20-60%	about 23%	not a significant increase over control	around 22 seconds	
CCOC(=O)[C@H](CSC(=O)c1ccc(C)cc1)NC(C)=O [Pro-4051, Ethyl (2R)-2-acetamido-3-(4-methylbenzoylsulfanyl)propanoate]		about 46%			about 1.05 times	about 1960 nmol/g			~150%	around 48 seconds	approximately 28%
